# Key:
# [1] = system: dorsal root ganglion (DRG) neurons; assay: DRG explant neurite outgrowth on MMP-1-digested collagen treated with CMP; assay type: cell-based, rat
# Experimental: Plates were then rinsed with culture medium, and DRG neuronal cells were plated uniformly on plates having one of three surface coating conditions: (1) intact collagen; (2) MMP1-digested collagen; and (3) MMP1-digested collagen+CMP. Plates were then incubated at 37° C. for 24 hours or 48 hours, and then examined for morphology and neurite outgrowth by inverted brightfield microscopy.
# To measure neurite outgrowth accurately, explants were visualized live using multifocal high-magnification phase contrast microscopy to optimize identification and measurement of the longest neurite (FIG. 2A, white arrow) and the size of the DRG explant growth field.
# [2] = system: optic nerve; assay: Optic nerve crush, axon repair after intravitreal injection; assay type: in vivo, mice; conditions: for greater abundance of CTB-containing axon segments vs vehicle: measurements above the median, p≤0.02
# Experimental: To further examine the effects of CMPs on nerve regeneration, optic nerve crush experiments were performed. This approach is a useful model of traumatic optic neuropathy and for assessing potential neuroreparative and neuroregenerative strategies (Cameron, E G et al., Bio-protocol 10(6) (Mar. 20, 2020), doi: 10.21769/BioProtoc.3559). Axon degeneration in this injury model also involves degradation of matrix collagen associated with robust tissue remodeling (Bernardo-Colon, A et al., Cell Death Dis. 9:1097 (2018); Sharma, T P et al., Mol. Neurodegener. 9:14 (2014)). Mice were subjected to […] nerve crush, and then three days later received an intravitreal injection of vehicle (DMSO) or of fluorescently tagged CMP 13A (SEQ ID NO:6). Optic nerves were longitudinally sectioned in the site of the injury two weeks following nerve crush, and sections were examined for axon length (via cholera toxin B labeling) and CMP localization (via fluorescence microscopy). Sections were also labeled with glial fibrillary acidic protein (GFAP) to localize astrocyte glia in the sections. […] Repaired axons were largely coincident with localized patches of CMP (FIG. 6C, arrows). Scale=200 μm (FIG. 6A) or 100 μm (FIGS. 6B,C).
# Next, we quantitated the number of CTB+ green axon segments at discrete distances distal from the crush site (towards the brain). […] Even so, in both cohorts, there were a number of samples with few, if any, axons distal from the crush site, leading to substantial variability (FIG. 7B, inset). To better estimate the magnitude of the effect due to CMP 13A compared to vehicle, we pooled the measurements above the median at each location into three bins: 50-100 μm, 200-300 μm, and 400 μm and further from the injury site. […] Intact axon segments in these nerves were also longer than those in nerves from vehicle-treated eyes. The mean length of intact axon segments in nerves from CMP 13A-treated eyes was 51% greater than that in the vehicle cohort: 122.6±5.5 vs. 81.1±8.3 μm (p<0.001; FIG. 7D). Similarly, the mean for the longest 25 segments in the CMP 13A nerves was nearly 80% greater than that for vehicle nerves: 228.1±12.9 vs. 127.8±10.5 μm (p<0.001; FIG. 7E).
# [3] = system: cerebrovasculature of ApoE−/− STZ mice; assay: Diabetic atherosclerosis mouse model (ApoE−/− + STZ + high fat diet), cerebrovascular immunohistochemistry; assay type: in vivo
# Experimental: Animals. All animal studies were conducted in accordance with the NIH guide for the care and use of laboratory animals and approved by the Vanderbilt University Institutional Animal Care and Use Committee. For the studies described, 12-week-old ApoE^−/− (#002052) or C57/B6J wildtype (WT) (#000664) mice were obtained from Jackson Laboratories. Mice were housed in a facility managed by Vanderbilt University Division of Animal Care with ad libitum access to water and standard diet followed by ad libitum access to 45% high fat diet (Research Diet Inc.; Catalog #D12451) starting at the correct study time point. Mice were subjected to 12-hr. light/dark cycle.
# Animal Model of Diabetic Atherosclerosis. A diabetic atherosclerosis mouse model was implemented by combining ApoE^−/− mice with a streptozocin STZ-induced diabetic phenotype. Prior to STZ injection and diet change, baseline fasting blood glucose measurements and weights were obtained. To induce hyperglycemia ApoE^−/− mice were injected with STZ (50 mg/Kg in 10 mM sodium citrate, pH4.5; Millipore Sigma Catalog #S0130) intraperitoneally for five consecutive days. For the duration of STZ injections, mice received drinking water supplemented with 10% sucrose. One week after the final STZ injection, blood glucose levels were measured to confirm hyperglycemia. Mice were fasted for 6 hours prior to glucose measurement and then anesthetized with 2.5% isoflurane. Tail snips were taken, and one drop of blood was placed on test strips to obtain readings. Tails were then stemmed of bleeding using a silver nitrate applicator (Avoca reference number #7482) before returning mice to their cages. Any mice not registering as hyperglycemic were removed from the study. Remaining mice were then switched to a 45% high fat diet (HFD) to accelerate atherosclerotic plaque formation. After 1 week on HFD, mice were randomly assigned to receive intravenous CMP (n=5) or PBS (1×PBS, n=4) once weekly for 12 weeks. Upon conclusion of the study, mice were anesthetized via intraperitoneal pentobarbital injection followed by transcardial perfusion of 1×PBS and 4% paraformaldehyde (PFA). One day prior to sacrifice, mice were injected via tail vein injection with Sulfo-NHS-Biotin in sterile 1×PBS (Thermo-Fisher; Catalog #21335).
# Intravenous Administration of CMPs. The CMP used in the present Example was a 21-aa single-strand peptide consisting of a 7-repeat sequence of a tripeptide of 4-fluoroproline (Flp), hydroxyproline (Hyp), and glycine (Gly), and abbreviated as (cis-Flp-Hyp-Gly)7 (SEQ ID NO:6). This CMP was manufactured using standard solid-phase peptide synthesis chemistry in limited quantity by Bachem, AG (Germany). CMP was dissolved in sterile 1×PBS at a concentration of […] and sterilized using a 0.22 µm filter (Millipore Sigma, Burlington, MA, USA). Mice were weighed and restrained in an apparatus designed for tail vein injection. Tails were heated to dilate the veins prior to weekly injection, and […] of CMP in sterile 1×PBS (vehicle) was injected to accommodate a final concentration in each animal of 0.1 mg/Kg. An additional batch of this CMP was produced with attachment of the TideFluor™ 2 moiety (AAT Bioquest, Sunnyvale, CA, United States) to the peptide as a fluorescent reporter. This labeled CMP was injected intravenously at 100 μM concentration (100 μL) to identify binding in WT vs. ApoE^−/−+STZ mice. CMP was injected 48 hours prior to sacrifice and again immediately before transcardial perfusion of 4% PFA. One day prior to euthanasia, tail veins were injected with Sulfo-NHS biotin to track vascular leakage. Sulfo-NHS Biotin (Thermo-Fisher; Catalog #21335) was dissolved in sterile 1×PBS (20 mg/mL) and sterilized through a […] filter. Mice were then restrained in tail vein apparatus and injected intravenously with 100 μL Sulfo-NHS biotin. […]
substance,measurement,setting,value
Pro-Flp-Gly-Pro-Flp-Gly-Pro-Flp-Gly-Pro-Flp-Gly-Pro-Flp-Gly-Pro-Flp-Gly-Pro-Flp-Gly [CMP 09C],"longest neurite outgrowth, greater than intact collagen","[1]; 48 hours, MMP1-digested collagen + CMP 100 μM, normalized to intact collagen, p<0.036",21%
same,neurite outgrowth of DRG explants (phase contrast micrographs),"[1]; explants on damaged (MMP-1-digested) collagen treated with CMP 100 μM, 24 and 48 hours",improved outgrowth
Flp-Hyp-Gly-Flp-Hyp-Gly-Flp-Hyp-Gly-Flp-Hyp-Gly-Flp-Hyp-Gly-Flp-Hyp-Gly-Flp-Hyp-Gly [CMP 13A],greater abundance of CTB-containing axon segments vs vehicle,[2]; 50-100 μm from injury site,29%
same,greater abundance of CTB-containing axon segments vs vehicle,[2]; 200-300 μm from injury site,39%
same,greater abundance of CTB-containing axon segments vs vehicle,[2]; 400 μm and further from injury site,96%
same,number of CTB+ axon segments at discrete distances distal from the crush site,"[2]; fluorescently tagged CMP 13A intravitreal 3 days after crush, two weeks after crush, vs vehicle (DMSO)",more axon segments than nerves from vehicle eyes at each location examined
same,"distance of CTB+ segments distal from the injury, some samples",[2]; two weeks after crush,≤ 1 mm
same,mean for the longest 25 segments,[2]; two weeks after crush,228.1±12.9 μm
same,mean length of intact axon segments,[2]; two weeks after crush,122.6±5.5 μm
same,"mean for the longest 25 segments, greater than vehicle nerves","[2]; two weeks after crush, p<0.001",~80%
same,"mean length of intact axon segments, greater than vehicle cohort","[2]; two weeks after crush, p<0.001",51%
same,vascular leakage of biotin,"[3]; 3 months post-treatment, Sulfo-NHS biotin intravenous one day before euthanasia",not observed
same,distance from individual astrocytes to the nearest blood vessel,[3]; CA1 (p<0.0001) and DG (p=0.0004),closer to blood vessels than in PBS-treated mice
same,GFAP density vs PBS,[3]; CA1 (p=0.07) and DG (p=0.06),not significantly different
same,biotin intensity (secondary measure of vessel density) vs PBS,"[3]; CA1, DG and cortex",increased biotin labeling
same,CD31 intensity vs PBS,"[3]; CA1, cortex and DG (p=0.02, p<0.0001, p=0.01), 0.1 mg/Kg intravenous once weekly for 12 weeks",increased
same,increase of collagen IV intensity relative to PBS-treated controls,"[3]; CA1, p=0.01",170%
same,number of astrocyte soma vs PBS,"[3]; CA1, p=0.02",decreased
same,area of CD31-positive vessels vs PBS,"[3]; CA1 and cortex (p=0.001 and p<0.0001), (cis-Flp-Hyp-Gly)7 0.1 mg/Kg intravenous once weekly for 12 weeks",significant increase
same,CD31 intensity as a ratio of biotin intensity vs PBS,[3]; DG only (p=0.04),significantly increased
same,vessel (CD31) area vs control,"[3]; DG, 0.1 mg/Kg intravenous once weekly for 12 weeks",no significant difference
same,increase of collagen IV intensity relative to PBS-treated controls,"[3]; DG, p=0.04",52%
same,number of astrocyte soma vs PBS,"[3]; DG, p=0.31",not significantly different
same,vascular structure by biotin labeling,"[3]; all brain regions, vs shorter, more fragmented vessels in PBS-treated mice","longer, more complex vessels with increased branching"
same,increase of collagen IV intensity relative to PBS-treated controls,"[3]; cortex, p=0.01",175%

# — US20260115261A1, “COLLAGEN PEPTIDE-BASED MEDICAMENT COMPOSITIONS AND USES THEREOF” (SUSTAIN HOLDINGS, LLC, priority 2023, published 2026)
